We go through 1 compound from patent US7910568B2, “Derivatives of 4- or 5-aminosalicylic acid” (Antibe Therapeutics Inc., priority 2005, dated 2011).

Test [1] has as its system visceral pain perception in response to colorectal distension. As to the kind of experiment: Rat model of visceral pain perception, colorectal distension, abdominal withdrawal reflex score. The test is classed as in vivo. As to the method: A rat model of visceral pain perception, a pre-clinical model of irritable bowel syndrome, was used in the following example. Rats (male, Wistar, 200-250 g, obtained from Charles River, Monza, Italy), were housed in plastic cages and maintained under controlled conditions with 12-hours light/dark cycle with lights on at 7.00 AM. Tap water and standard laboratory chow were freely available. Before experiments, rats were individually trained by spending 2-3 hours per day in a plexiglass cage for 2-3 days. It allowed them to adjust to a movement-restriction environment. Food was withheld for 12 hours before colorectal distension (CRD) recording were performed. Experiments were performed in awake rats and were conducted in a blind manner in that the observer was not aware of the identity of drug administered to each animal.
In the testing day, rats were sedated with ether inhalation and a 2 cm long latex balloon was inserted intrarectally 2 cm from the anal verge and fixed at the base of the tail. The balloon was connected via a double-barreled cannula to a pressure transducer to continuously monitoring the rectal pressure by a computer (PowerLab PC, A.D. Instruments, Milford, Mass., USA) and to a syringe for inflation/deflation of the balloon. The rats were then housed in a small cage (20×8×8 cm) on an elevated Plexiglas™ platform and allowed to wake up and adapt for 1 hour. After recovery from sedation, animals underwent the CRD procedure and behavioral responses were tested. The night before the experiments, the balloons were inflated and left overnight so the latex stretched and the balloons became compliant.
CRD of 20 seconds, performed every 5 minutes, was applied in increment of 0.4 ml starting from 0.4 ml up to 1.6 ml water. To achieve an accurate measurement of the colonic parameters and perception, the distensions were repeated twice for each intensity and data for each animal were averaged for analysis. Each animal underwent a double set of CRD. Twenty minutes after the first sequence of CRD (0.4 mL-1.6 ml water), drugs were administered intraperitoneally (i.p.) and a second set of CRD was performed. Behavioral responses during the first and the second set of CRD were assessed and compared.
Behavioral response to CRD was assessed by measuring the abdominal withdrawal reflex (AWR) using a semiquantitative score (1).
The effects of mesalamine and Compound XXXV on colonic compliance and sensitivity were determined using a total of 8 fasting rats. To investigate whether the administration of mesalamine and Compound XXXV could revert pain induced by CRD, after the first sequence of CRD, […], after which a second set of CRD was repeated.
All data are presented as the mean±SEM, with sample sizes of 4 rats/group; statistical comparison of paired data was performed by the Wilcoxon signed rank test. An associated probability (p value) of less that 5% was considered significant.

Test [2] relates to TNF-α, IFN-γ, IL-1, IL-2, IL-12 p40, RANTES mRNA. As to the kind of experiment: TNBS-induced colitis in mice, colonic mRNA of pro-inflammatory cytokines and chemokines by RT-PCR. The test is classed as in vivo. The conditions noted are these: dose equimolar to 50 mg/kg mesalamine; normalized to GAPDH, ratio to healthy controls. On the procedure: The same model was used as described above. In this example, the effects of mesalamine (50 mg/kg) were compared to those of equimolar doses of Compound XXXV. In addition to measuring the severity of colitis by measuring disease activity score and MPO activity, tissues were processed for measurement of a number of genes for inflammatory cytokines and other mediators.
In particular, mRNA expression in mice of tumour necrosis factor-alpha (TNF-α), interferon gamma (IFN-γ), colonic interleukin (IL)-1, IL-2, IL-10, IL-12 p40, RANTES, cyclooxygenase (COX)-1, COX-2, constitutive endothelial nitric oxide synthase (eNOS), and inducible NOS (iNOS) was measured as described in Wallace et al. (1999) Gastroenterology 117: 557-566, incorporated herein by reference.
Briefly, reverse transcription-polymerase chain reaction (RT-PCR) was used to detect and quantify mRNA of the particular cytokine/chemokine/enzyme. Glyceraldehyde-3-phosphate dehydrogenase (GAPDH) was used as the “housekeeping gene” for mRNA expression (i.e., as an internal control). For each sample, the ratio of the amplification of the target gene to the amplification of GAPDH (expression of each is measured by performing densitometry on gels) was obtained. […]

The test system of test [3] is leukocyte adherence to the vascular endothelium. As to the kind of experiment: Aspirin-induced leukocyte adherence to the vascular endothelium, intravital microscopy of mesenteric venules. The test is classed as in vivo, rat. On the procedure:
Leukocyte adherence was studied using intravital microscopy, as described in detail previously (Wallace et al., (1993) Am. J. Physiol. 265: 993-998, incorporated hereto by reference). Rats were anesthetized with pentobarbital sodium (60 mg/kg i.p.) and cautery incisions were made along the abdominal region. A tracheotomy was performed to facilitate breathing. The rats were placed in a supine position, and a segment of the mesentery was exteriorized through the abdominal incision. The mesentery was carefully placed over an optically clear viewing pedestal that allowed for trans-illumination of a 2-cm^2 segment of tissue. All exposed tissue was covered with saline-soaked gauze to minimize dehydration. The temperature of the pedestal was kept at 37° C. and the mesentery was superfused with warmed bicarbonate-buffered saline (pH 7.4). An intravital microscope (Nikon L25/0.35) and a ×10 eyepiece were used to observe the mesenteric microcirculation. Post-capillary venules with diameters ranging from 20 to 40 μm were selected for the study. A video camera mounted on the microscope (Panasonic™ digital 5000) projected the image onto a monitor, and the images were recorded for playback analysis using a videocassette recorder. Images of the mesenteric microcirculation were recorded 5 minutes prior to aspirin administration (baseline), at the time of aspirin administration (time 0-5) and every 15 minutes for 60 minutes. Leukocyte adherence was blindly quantified from videotaped images of the vessels made over 5-min periods as the number of leukocytes that remained stationary along the vessel wall for 30 s or more (expressed per 100 μm venule length). Groups of rats (at least 5 in each) were pretreated with Compound XXXV (130 mg/kg), Compound XXVII (100 mg/kg), mesalamine (50 mg/kg), or vehicle 60 min prior to aspirin (or vehicle) administration. These drugs were given intragastrically. In some experiments, rats were treated with glibenclamide (10 mg/kg i.p.) or vehicle 30 min prior to administration of these compounds.

Turning to `Nc1ccc(O)c(C(=O)Oc2ccc(-c3cc(=S)ss3)cc2)c1` [Compound XXXV, 5-Amino-2-hydroxy-benzoic acid 4-(5-thioxo-5H-[1,2]dithiol-3-yl)-phenyl ester], the “Perception score (visceral pain in response to colorectal distension)” value in test [1] (100 mg/kg i.p., second set of CRD 0.4-1.6 ml, FIG. 15) is “more effective than mesalamine (and vehicle) in reducing visceral pain”. The “Pain perception score after glibenclamide pretreatment” value in test [1] (0.8 mL colorectal distention, 100 mg/kg, glibenclamide 10 mg/kg i.p. 30 min before, FIG. 17) is given as “reversed by pretreatment with glibenclamide”. Also, the Pain perception score result is on record as “significantly reduced the pain perception” in test [1] (0.8 mL colorectal distention, 100 mg/kg, FIG. 17) and “significantly reduced pain perception” in test [1] (equimolar doses: mesalamine 50 mg/kg, Compound XXXV 130 mg/kg, ADT-OH 80 mg/kg, Compound XXVII 100 mg/kg, 4-HTB 50 mg/kg, vs vehicle). Besides, in test [2], the “Expression of mRNA for pro-inflammatory cytokines and chemokines” value is “suppressed expression of mRNA for several pro-inflammatory cytokines and chemokines”. Moreover, in test [3] (glibenclamide 10 mg/kg i.p. 30 min prior to the compound, FIG. 19), the “Aspirin-induced leukocyte adherence after glibenclamide pretreatment” value is given as “reversed the inhibitory effect”. Besides, the Aspirin-induced leukocyte adherence entry in test [3] (intragastric pretreatment 60 min prior to aspirin (XXXV 130 mg/kg, mesalamine 50 mg/kg), glibenclamide 10 mg/kg i.p., FIG. 19) is recorded as “prevented the aspirin-induced increase in leukocyte adherence”. Further, in test [3] (minutes 60-65, XXXV 130 mg/kg, XXVII 100 mg/kg intragastric, FIG. 20), the “Aspirin-induced leukocyte adherence, final time period” value is “suppress aspirin-induced leukocyte adherence”. Further, the “Aspirin-induced leukocyte adherence, final time period, after glibenclamide pretreatment” value in test [3] (minutes 60-65, glibenclamide 10 mg/kg i.p., FIG. 20) is reported as “reverse this inhibitor effect”.
